{
  "source": "paper PMC11765156",
  "about": "(International Journal of Molecular Sciences, 2025)",
  "key": {"[1]": {"system": "Balanus amphitrite", "experiment": "Anti-settlement assay with barnacle cyprid larvae (settlement inhibition and mortality, 48 h)", "assay_type": "in vivo", "details": "for EC50: Amphibalanus amphitrite, read-out: EC50 (inhibition of barnacle larval settlement); for LC50/EC50: Balanus amphitrite, ratio >15 indicating low toxicity", "experimental": "(§1) Compounds dissolved in DMSO were sequentially administered to the wells, starting with a concentration of 25 µg/mL and proceeding with serial half-logarithmic dilutions. The volume of the compound in each well was maintained at […], with seawater as the blank control, DMSO as the negative control, and SeaNine 211 serving as the positive control. Utilizing a stereo microscope, a 1 mL micropipette was employed to introduce 995 μL of seawater and between 21 and 25 cyprid larvae into each well of a 24-well plate. Subsequently, the plates were incubated in a darkened, temperature-controlled environment for 48 h. […] This observation facilitated the calculation of mortality and settlement rates of the barnacle cyprids, crucial for assessing the antifouling properties of the compounds. The determination of EC50 values for the inhibition of barnacle larval attachment and LC50 values for larval mortality offered an evaluation of the compounds’ efficacy in deterring barnacle larval adherence and their associated toxicity."}, "[2]": {"experiment": "Anti-settlement assay with barnacle cyprid larvae (settlement inhibition and mortality, 48 h)", "assay_type": "in vivo, Balanus amphitrite", "details": "in vivo, other: larvae immersed in seawater containing the compound; Balanus amphitrite cyprid larvae, 48 h incubation; read-out: LC50 (larval mortality)", "experimental": "as §1"}, "[3]": {"system": "Balanus amphitrite cyprid larvae", "experiment": "Rescue (resuscitation) assay of Balanus amphitrite cyprid larvae", "assay_type": "in vivo", "details": "1 μg/mL for 24 h, rinsed, settlement observed after 48 h"}, "[4]": {"experiment": "Zebrafish embryo toxicity assay", "assay_type": "in vivo", "details": "in vivo, other: embryos immersed in compound solution in wells, 48 h exposure, read-out: LC50 at 48 h post-fertilization", "experimental": "(§2) The zebrafish embryo toxicity assay was conducted according to the method described by Huang et al., with slight modifications. Test compounds were dissolved in 0.5% DMSO to prepare a concentration series (0.1, 1, 5, 25, 50 μg/mL), which was then dispensed into 24-well plates. Fifteen cleavage-stage embryos were added to each well. The plates were incubated at 28 °C, and embryonic development was evaluated under a stereomicroscope after 48 h of exposure."}, "[5]": {"system": "zebrafish embryos", "experiment": "Zebrafish embryo toxicity assay", "assay_type": "in vivo", "details": "for phenotype of zebrafish embryos versus control: 48 h", "experimental": "as §2"}, "[6]": {"details": "Balanus amphitrite cyprid larvae, 48 h incubation"}},
  "data": [
    {"molecule": "COC(=O)C12OCC34C(CC5C(C)=C(O)C(=O)CC5(C)C3C(O)C1O)OC(=O)C(OC(=O)CCCCCl)C24", "note": "(stereo not shown) [Compound 2, 15-O-(5′-Chlorovaleryl)-Bruceolide]", "values": [
      {"measurement": "EC50", "setting": "[1]; [6]", "result": "0.417 ± 0.185", "unit": "mg/L"},
      {"measurement": "LC50/EC50", "setting": "[1]", "result": 2.6978},
      {"measurement": "LC50 at 48 h", "setting": "[2]", "result": "1.12 ± 0.144", "unit": "mg/L"}
    ]},
    {"molecule": "COC(=O)C12OCC34C(CC5C(C)=C(O)C(=O)CC5(C)C3C(O)C1O)OC(=O)C(OC(=O)CCC#N)C24", "note": "(stereo not shown) [Compound 12, 15-O-(3′-Cyanopropanoyl)-Bruceolide]", "values": [
      {"measurement": "EC50", "setting": "[1]; [6]", "result": "1.39 ± 0.135", "unit": "mg/L"},
      {"measurement": "LC50/EC50", "setting": "[1]", "result": 2.0219},
      {"measurement": "LC50 at 48 h", "setting": "[2]", "result": "2.8 ± 0.122", "unit": "mg/L"}
    ]},
    {"molecule": "COC(=O)C12OCC34C(CC5C(C)=C(O)C(=O)CC5(C)C3C(O)C1O)OC(=O)C(OC(=O)c1ccc(Cl)cc1)C24", "note": "(stereo not shown) [Compound 4]", "values": [
      {"measurement": "EC50", "setting": "[1]; [6]", "result": "0.353 ± 0.101", "unit": "mg/L"},
      {"measurement": "LC50/EC50", "setting": "[1]", "result": 2.1018},
      {"measurement": "LC50 at 48 h", "setting": "[2]", "result": "0.741 ± 0.082", "unit": "mg/L"}
    ]},
    {"molecule": "COC(=O)C12OCC34C(CC5C(C)=C(O)C(=O)CC5(C)C3C(O)C1O)OC(=O)C(OC(=O)CCCCl)C24", "note": "(stereo not shown) [Compound 3, 15-O-(4′-Chlorobutanoyl)-Bruceolide]", "values": [
      {"measurement": "recovery rate", "setting": "[3]", "result": "high recovery rates"},
      {"measurement": "resuscitation rate", "setting": "[3]", "result": 71.11, "unit": "%"},
      {"measurement": "EC50", "setting": "[1]; [6]", "result": "0.147 ± 0.0332", "unit": "mg/L"},
      {"measurement": "LC50/EC50", "setting": "[1]", "result": 42.2922},
      {"measurement": "LC50 at 48 h", "setting": "[2]", "result": "6.24 ± 2.62", "unit": "mg/L"},
      {"measurement": "LC50 at 48 h", "setting": "[4]", "result": 15.8, "unit": "mg/L"},
      {"measurement": "phenotype of zebrafish embryos versus control", "setting": "[5]", "result": "no significant phenotypic differences"}
    ]},
    {"molecule": "COC(=O)C12OCC34C(CC5C(C)=C(O)C(=O)CC5(C)C3C(O)C1O)OC(=O)C(OC(=O)c1ccc(Cl)s1)C24", "note": "(stereo not shown) [Compound 5]", "values": [
      {"measurement": "EC50", "setting": "[1]; [6]", "result": "2.02 ± 0.237", "unit": "mg/L"},
      {"measurement": "LC50/EC50", "setting": "[1]", "result": 3.0330},
      {"measurement": "LC50 at 48 h", "setting": "[2]", "result": "6.14 ± 0.173", "unit": "mg/L"}
    ]},
    {"molecule": "COC(=O)C12OCC34C(CC5C(C)=C(O)C(=O)CC5(C)C3C(O)C1O)OC(=O)C(OC(=O)CCCCBr)C24", "note": "(stereo not shown) [Compound 1, 15-O-(5′-Bromovaleryl)-Bruceolide]", "values": [
      {"measurement": "EC50", "setting": "[1]; [6]", "result": "0.523 ± 0.123", "unit": "mg/L"},
      {"measurement": "LC50 at 48 h", "setting": "[2]", "result": "0.842 ± 0.112", "unit": "mg/L"}
    ]},
    {"molecule": "COC(=O)C12OCC34C(CC5C(C)=C(O)C(=O)CC5(C)C3C(O)C1O)OC(=O)C(OC(=O)Cc1cccc(F)c1)C24", "note": "(stereo not shown) [Compound 8, 15-O-(5′-Fluorophenylacetyl)-Bruceolide]", "values": [
      {"measurement": "EC50", "setting": "[1]; [6]", "result": "1.12 ± 0.103", "unit": "mg/L"},
      {"measurement": "LC50/EC50", "setting": "[1]", "result": 5.2723},
      {"measurement": "LC50 at 48 h", "setting": "[2]", "result": "5.91 ± 1.03", "unit": "mg/L"}
    ]},
    {"molecule": "brusatol [B1, reference compound]", "values": [
      {"measurement": "EC50 (inhibition of barnacle larval settlement)", "setting": "[1]; [6]", "result": "2.7826 ± 0.6874", "unit": "mg/L"}
    ]},
    {"molecule": "COC(=O)C12OCC34C(CC5C(C)=C(O)C(=O)CC5(C)C3C(O)C1O)OC(=O)C(OC(=O)Cc1cccc(C#N)c1)C24", "note": "(stereo not shown) [Compound 13, 15-O-(5′-Cyano-Phenyl-3′-Acetyl)-Bruceolide]", "values": [
      {"measurement": "EC50", "setting": "[1]; [6]", "result": "1.84 ± 0.179", "unit": "mg/L"},
      {"measurement": "LC50/EC50", "setting": "[1]", "result": 3.5854},
      {"measurement": "LC50 at 48 h", "setting": "[2]", "result": "6.61 ± 0.112", "unit": "mg/L"}
    ]},
    {"molecule": "COC(=O)C12OCC34C(CC5C(C)=C(O)C(=O)CC5(C)C3C(O)C1O)OC(=O)C(OC(=O)c1ccc(Cl)nc1)C24", "note": "(stereo not shown) [Compound 6]", "values": [
      {"measurement": "recovery rate", "setting": "[3]", "result": "high recovery rates"},
      {"measurement": "EC50", "setting": "[1]; [6]", "result": "0.34 ± 0.104", "unit": "mg/L"},
      {"measurement": "LC50/EC50", "setting": "[1]", "result": 16.9633},
      {"measurement": "LC50 at 48 h", "setting": "[2]", "result": "5.77 ± 2.54", "unit": "mg/L"},
      {"measurement": "LC50 at 48 h", "setting": "[4]", "result": 8.18, "unit": "mg/L"},
      {"measurement": "phenotype of zebrafish embryos versus control", "setting": "[5]", "result": "no significant phenotypic differences"}
    ]},
    {"molecule": "COC(=O)C12OCC34C(CC5C(C)=C(O)C(=O)CC5(C)C3C(O)C1O)OC(=O)C(OC(=O)c1ccc(C(C)=O)s1)C24", "note": "(stereo not shown) [Compound 14, 15-O-(3′-Acetyl-Thiophen-6′-Carbonyl)-Bruceolide]", "values": [
      {"measurement": "EC50", "setting": "[1]; [6]", "result": "2.15 ± 0.727", "unit": "mg/L"},
      {"measurement": "LC50/EC50", "setting": "[1]", "result": 3.6926},
      {"measurement": "LC50 at 48 h", "setting": "[2]", "result": "7.92 ± 0.243", "unit": "mg/L"}
    ]},
    {"molecule": "CCCCCCCCn1sc(Cl)c(Cl)c1=O", "note": "[SeaNine 211, reference compound]", "values": [
      {"measurement": "EC50 (inhibition of barnacle larval settlement)", "setting": "[1]; [6]", "result": "1.9363 ± 0.4128", "unit": "mg/L"},
      {"measurement": "LC50 (larval mortality)", "setting": "[1]; [6]", "result": "33.9306 ± 2.0625", "unit": "mg/L"},
      {"measurement": "LC50 at 48 h post-fertilization", "setting": "[5]; 48 h exposure", "result": 7.2236, "unit": "mg/L"}
    ]}
  ]
}
